Active and inactive are the calls of the source. No cut-off for these calls is given here.
Key:
[1] = test system: Rattus norvegicus; assay: Narcotic analgesic activity in fasted Sprague-Dawley rat at 240 mg/kg, po measured at 15 mins by D'Amour-Smith tail-flick test relative to control; format: functional
[2] = test system: Rattus norvegicus; assay: Narcotic analgesic activity in fasted Sprague-Dawley rat at 240 mg/kg, po measured at 60 mins by D'Amour-Smith tail-flick test relative to control; format: functional
[3] = test system: Rattus norvegicus; assay: Hypoglycemic activity in glucose loaded Sprague-Dawley rat assessed as reduction of blood glucose level at 94 mg/kg, po relative to control; format: functional; parameters: scale not given: the % may be the effect or the level left
[4] = test system: Rattus norvegicus; assay: Toxicity in Sprague-Dawley rat assessed as tremor at 240 mg/kg, po; format: organism-based; parameters: dose 240 mg/kg, route oral; conditions: in vivo
[5] = test system: Mus musculus; assay: Analgesic activity in Swiss-Webster mouse assessed as reduction of acetylcholine-induced writhing at 50 mg/kg, po relative to control; format: functional; parameters: scale not given: the % may be the effect or the level left
[6] = test system: Rattus norvegicus; assay: Toxicity in Sprague-Dawley rat assessed as rigidity at 240 mg/kg, po; format: organism-based; parameters: dose 240 mg/kg, route oral; conditions: in vivo
[7] = test system: Rattus norvegicus; assay: Hypoglycemic activity in Sprague-Dawley rat assessed as reduction of blood glucose level at 87 mg/kg, po by glucagon-impaired glucose disposal test relative to control; format: functional; parameters: scale not given: the % may be the effect or the level left
[8] = test system: Mus musculus; assay: Analgesic activity in sc dosed Swiss-Webster mouse assessed as reduction of acetylcholine-induced writhing; format: functional; conditions: Mus musculus, Swiss-Webster, sc; read-out: ED50
[9] = test system: Rattus norvegicus; assay: Narcotic antagonist activity in fed Sprague-Dawley rat assessed as decrease in phenazocine-induced analgesic activity at 80 mg/kg, sc; format: functional
[10] = test system: Rattus norvegicus; assay: Toxicity in Sprague-Dawley rat assessed as tremor at 30 mg/kg, sc; format: organism-based; parameters: dose 30 mg/kg, route subcutaneous; conditions: in vivo
[11] = test system: Rattus norvegicus; assay: Narcotic analgesic activity in fed Sprague-Dawley rat at 120 mg/kg, sc measured at 30 mins by D'Amour-Smith tail-flick test; format: functional; conditions: route subcutaneous
[12] = test system: Rattus norvegicus; assay: Toxicity in Sprague-Dawley rat assessed as convulsion at 120 mg/kg, sc; format: organism-based; parameters: dose 120 mg/kg, route subcutaneous; conditions: in vivo
[13] = test system: Rattus norvegicus; assay: Narcotic antagonist activity in fed Sprague-Dawley rat assessed as decrease in phenazocine-induced analgesic activity at 1 mg/kg, sc; format: functional, organism-based; parameters: dose 1 mg/kg
[14] = test system: Rattus norvegicus; assay: Hypoglycemic activity in glucose loaded Sprague-Dawley rat assessed as reduction of blood glucose level at 100 mg/kg, po measured at 1 hr; format: functional, organism-based; parameters: dose 100 mg/kg
[15] = test system: Rattus norvegicus; assay: Hypoglycemic activity in glucose loaded Sprague-Dawley rat assessed as reduction of blood glucose level at 100 mg/kg, po after 30 mins relative to control; format: functional; parameters: scale not given: the % may be the effect or the level left
[16] = test system: Rattus norvegicus; assay: Hypoglycemic activity in glucose loaded Sprague-Dawley rat assessed as reduction of blood glucose level at 100 mg/kg, po measured at 1.5 to 2 hrs; format: functional, organism-based; parameters: dose 100 mg/kg
[17] = test system: Rattus norvegicus; assay: Toxicity in Sprague-Dawley rat assessed as convulsion at 35 mg/kg, po; format: organism-based; parameters: dose 35 mg/kg, route oral; conditions: in vivo
[18] = test system: Rattus norvegicus; assay: Narcotic analgesic activity in fasted Sprague-Dawley rat at 35 mg/kg, po measured at 30 mins by D'Amour-Smith tail-flick test relative to control; format: functional
[19] = test system: Mus musculus; assay: Toxicity in Swiss-Webster mouse assessed as mortality at 75 mg/kg, sc; format: organism-based; parameters: dose 75 mg/kg, route subcutaneous; conditions: in vivo
[20] = test system: Rattus norvegicus; assay: Hypoglycemic activity in Sprague-Dawley rat assessed as reduction of blood glucose level at 9 mg/kg, po measured < 90 mins by glucagon-impaired glucose disposal test; format: functional, organism-based; parameters: dose 9 mg/kg
[21] = test system: Rattus norvegicus; assay: Hypoglycemic activity in Sprague-Dawley rat assessed as reduction of blood glucose level at 9 mg/kg, po measured within 15 mins by glucagon-impaired glucose disposal test relative to control; format: functional; parameters: scale not given: the % may be the effect or the level left
[22] = test system: Rattus norvegicus; assay: Hypoglycemic activity in Sprague-Dawley rat assessed as reduction of blood glucose level at 9 mg/kg, po by glucagon-impaired glucose disposal test in presence of microsomal enzyme inhibitor SKF 525-A; format: functional, organism-based; parameters: dose 9 mg/kg
[23] = test system: Rattus norvegicus; assay: Narcotic analgesic activity in fasted Sprague-Dawley rat at 35 mg/kg, po measured at 15 mins by D'Amour-Smith tail-flick test relative to control; format: functional
[24] = test system: Rattus norvegicus; assay: Narcotic analgesic activity in fasted Sprague-Dawley rat at 35 mg/kg, po measured at 60 mins by D'Amour-Smith tail-flick test relative to control; format: functional

COC(=O)[C@H]1C[C@H]2CC[C@@H]3[C@H]1c1sccc1C[N+]23[O-]
Activity [1]: 41% | Activity [2]: 14% | Activity [3]: <20% | Activity [4]: Toxic | Activity [5]: 67% | Activity [6]: Toxic

CC(=O)[C@H]1C[C@H]2CC[C@H]([C@H]1c1ccccc1)N2C.Cl
Activity [7]: 32% | ED50 [8]: 7 mg/kg | Activity [9]: Active | Activity [10]: Toxic | Activity [11]: <20% | Activity [12]: Toxic | Activity [13]: Active

COC(=O)[C@H]1C[C@H]2CC[C@@H]3[C@H]1c1cc(O)ccc1CN23
Activity [14]: inactive | Activity [15]: 33% | Activity [16]: inactive

COC(=O)[C@H]1C[C@H]2CC[C@@H]3[C@H]1c1sccc1CN23.Cl
Activity [17]: Toxic | Activity [18]: 14% | ED50 [8]: 1.5 mg/kg | Activity [19]: Toxic | Activity [20]: inactive | Activity [21]: 43% | Activity [22]: Active | Activity [23]: 74% | Activity [24]: 12%
